From patent publication US9487489B2, “Halogen-substituted pyrazole derivatives as pest-control agents” (BAYER CROPSCIENCE AKTIENGESELLSCHAFT, priority 2013, dated 2016)
Values joined by “and” are separate entries in the source; they are usually repeats but may differ in a detail not shown here. Equal entries are not always repeated.

Columns and labels:
[1] = test system: cattle ticks (Boophilus microplus) Parkhurst strain, SP-resistant; assay: Boophilus microplus dip test (BOOPMI Dip); format: in vivo; conditions: application rate 100 ppm, assessed after 7 days
Outline: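 Adult engorged female SP-resistant Parkhurst ticks (8–10) were fully immersed in compound diluted in water from a DMSO solution, then kept in a climate-controlled room. After 7 days, fertile egg-laying was scored, with larval hatching checked at about 42 days; 100% efficacy means no fertile eggs.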

[2] = test system: bont tick nymphs (Amblyomma hebraeum); conditions: after 48 h
[3] = test system: L1 larvae of the Australian sheep blowfly (Lucilia cuprina); assay: Lucilia cuprina test (LUCICU); format: in vivo; conditions: application rate 100 ppm; after 2 days
Outline: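 Percent mortality read at 2 days; 100% = all larvae killed, 0% = none. Test compound, predissolved in DMSO and water-diluted to the wanted level, was mixed into minced horsemeat holding roughly 20 first-instar larvae.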

[4] = test system: greenhouse red spider mite (Tetranychus urticae); assay: Tetranychus urticae spray test, OP-resistant (TETRUR); format: in vivo; conditions: bean leaf discs, after 6 days
Outline: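 Percent kill, scored 6 days post-spray (0% = none dead, 100% = all dead), on Phaseolus vulgaris leaf discs infested with every life stage of the OP-resistant spider mite. Compound dissolved in acetone plus DMF, diluted to test concentration with emulsifier-containing water (1000 ppm).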

[5] = logP determination by HPLC on a reversed-phase column (C18), EEC Directive 79/831 Annex V.A8; format: physicochemical
Outline: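 Per EEC 79/831 Annex V.A8, values derive from HPLC retention at 2.0 ml/min and 55° C on a 50*4.6 C18 column. The 10→95% acetonitrile gradient (0.1%/0.09% formic acid) lasted 4.25 min plus a 1.25 min hold; mass detection was by MSD.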

[6] = test system: green peach aphid (Myzus persicae); assay: Myzus persicae spray test (MYZUPE); format: in vivo; conditions: Chinese cabbage leaf discs, after 6 days
Outline: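 Chinese cabbage leaf discs infested with all aphid stages sprayed with compound in acetone/DMF with alkylaryl polyglycol ether emulsifier in water. Efficacy (% aphids killed; 100% all dead, 0% none) scored after 6 days.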

[7] = test system: larvae of the red stomach worm (Haemonchus contortus); assay: Haemonchus contortus test (HAEMCO); format: in vivo; conditions: application rate 20 ppm; after 5 days
Experimental: T8. Haemonchus contortus-test (HAEMCO)
Solvent: dimethyl sulphoxide
To produce a suitable preparation of active compound, 10 mg of active compound are mixed with 0.5 ml of dimethyl sulphoxide, and the concentrate is diluted with “Ringer solution” to the desired concentration.
Vessels containing the active compound preparation of the desired concentration are populated with about 40 larvae of the red stomach worm (Haemonchus contortus).
After 5 days, the kill in % is determined 100% means that all of the larvae have been killed; 0% means that none of the larvae have been killed.

[8] = test system: southern root-knot nematode (Meloidogyne incognita); assay: Meloidogyne incognita test (MELGIN); format: in vivo; conditions: application rate 20 ppm; lettuce; after 14 days
Experimental: K. Meloidogyne incognita Test (MELGIN)
Solvent: 125.0 parts by weight of acetone
To prepare a suitable active compound preparation, 1 part by weight of active compound is mixed with the stated amount of solvent and the concentrate is diluted with water to the desired concentration.
Vessels are filled with sand, active compound solution, an egg/larvae suspension of the southern root-knot nematode (Meloidogyne incognita) and lettuce seeds. The lettuce seeds germinate and the plants develop. On the roots, galls are formed.
After 14 days, the nematicidal efficacy in % is determined by the formation of galls. 100% means that no galls have been found; 0% means that the number of galls on the treated plants corresponds to the untreated control.

[9] = HPLC on reversed-phase column (C18), acetonitrile/water with formic acid, EEC Directive 79/831 Annex V.A8
[10] = HPLC, reversed-phase C18, acetonitrile (0.1% formic acid)/water (0.09% formic acid) gradient

SMILES | efficacy (laying of fertile eggs) [1] | efficacy (dead or moribund ticks) [2] | efficacy (kill in %) [3] | efficacy in % ([4]; application rate 100 g/ha) | logP [5, 9] | efficacy in % ([6]; application rate 100 g/ha) | efficacy (kill in %) [7] | nematicidal efficacy in % (formation of galls) [8] | efficacy in % ([4]; application rate 500 g/ha) | efficacy in % ([6]; application rate 500 g/ha) | chromatographic logP [5] | logP [5, 10]
Cn1nc(C(F)(F)C(F)(F)F)c(C(F)(F)F)c1-n1cc(-c2ccc(F)c(C(=O)NC3CC3)c2)cn1 [Ic-37] | 100% | 100% | 100% | 100% | 3.79 |  |  |  |  |  |  | 
Cn1nc(C(F)(F)C(F)(F)F)c(C(F)(F)F)c1-n1cc(-c2ccc(Cl)c(C(=O)NCC(F)(F)F)c2)cn1 [Ic-23] | 100% | 100% | 100% | 100% | 4.17 |  |  |  |  |  |  | 
Cn1nc(C(F)(F)C(F)(F)F)c(C(F)(F)F)c1-n1cc(-c2ccc(Cl)c(C(=O)NC3CC3F)c2)cn1 (centres unmarked) [Ic-81] | 100% | 100% | 100% | 100% | 3.8 | 90% |  |  |  |  |  | 
Cn1nc(C(F)(F)C(F)(F)F)c(C(F)(F)F)c1-n1cc(-c2ccc([N+](=O)[O-])c(C(=O)NC3CC3)c2)cn1 [Ic-66] | 100% |  | 100% | 100% | 3.53 | 90% |  |  |  |  |  | 
Cn1nc(C(F)(F)C(F)(F)F)c(C(F)(F)F)c1-n1cc(-c2ccc(Cl)c(C(=O)NCC(F)F)c2)cn1 [Ic-78] | 100% |  | 100% | 100% | 3.86 | 90% |  |  |  |  |  | 
CCn1nc(C(F)(F)C(F)(F)F)c(C(F)(F)F)c1-n1cc(-c2ccc(Cl)c(C(=O)NC3CC3)c2)cn1 [Ic-16] | 100% | 100% | 100% |  | 4.14 |  | 80% |  |  |  |  | 
Cn1nc(C(F)(F)C(F)(F)F)c(C(F)(F)F)c1-n1cc(-c2ccc(Cl)c(C(=O)NC3CC3)c2)cn1 [Ic-1, 2-Chloro-N-cyclopropyl-5-[2′-methyl-5′-(pentafluoroethyl)-4′-(trifluoromethyl)-2′H-1,3′-bipyrazol-4-yl]benzamide] | 100% | 100% | 100% |  |  |  | 80% | 90% | 100% | 90% | 3.79 | 
Cn1nc(C(F)(F)C(F)(F)F)c(C(F)(F)F)c1-n1cc(-c2cc(F)c(Cl)c(C(=O)NC3CC3)c2)cn1 [Ic-24] | 100% |  | 100% |  | 3.90 |  |  |  | 100% | 90% |  | 
Cn1nc(C(F)(F)C(F)(F)F)c(C(F)(F)F)c1-n1cc(-c2cc(F)c(Cl)c(C(=O)NC3(C#N)CC3)c2)cn1 [Ic-27] | 100% |  | 100% |  | 3.87 |  |  |  | 100% | 90% |  | 
Cn1nc(C(F)(F)C(F)(F)F)c(C(F)(F)F)c1-n1cc(-c2ccc(F)c(C(=O)NC3(C#N)CC3)c2)cn1 [Ic-36] | 100% |  | 100% | 100% | 3.69 | 90% |  |  |  |  |  | 
Cc1ncc(-c2cnn(-c3c(C(F)(F)F)c(C(F)(F)C(F)(F)F)nn3C)c2)cc1C(=O)NC1CC1 [Ic-84] | 100% | 100% | 100% |  |  |  |  |  | 100% | 100% |  | 
Cn1nc(C(F)(F)C(F)(F)F)c(C(F)(F)F)c1-n1ccc(-c2ccc(Cl)c(C(=O)NC3(C#N)CC3)c2)c1 [Ia-1] | 100% | 100% | 100% | 100% |  |  |  |  |  |  |  | 3.99
Cn1nc(C(F)(F)C(F)(F)F)c(C(F)(F)F)c1-n1cc(-c2ccc(Cl)c(C(=O)NC3(C(N)=S)CC3)c2)cn1 [Ic-11] | 100% | 100% | 100% | 90% | 3.59 | 100% |  |  |  |  |  | 
Cn1nc(C(F)(F)C(F)(F)F)c(C(F)(F)F)c1-n1cc(-c2ccc(Cl)c(C(=O)NC3(C#N)CC3)c2)cn1 [Ic-2] | 100% | 100% | 100% | 100% | 3.72 | 100% |  |  |  |  |  | 
Cn1nc(C(F)(F)C(F)(F)F)c(C(F)(F)F)c1-n1cc(-c2cc(Cl)c(Cl)c(C(=O)NC3CC3)c2)cn1 [Ic-94] | 100% | 100% | 100% |  |  |  |  |  | 100% | 100% |  | 
Cn1nc(C(F)(F)C(F)(F)F)c(C(F)(F)F)c1-n1ccc(-c2ccc(Cl)c(C(=O)NC3CC3)c2)c1 [Ia-2] | 100% | 100% | 100% | 90% |  |  |  |  |  |  |  | 4.08
CN(C(=O)c1cc(-c2cnn(-c3c(C(F)(F)F)c(C(F)(F)C(F)(F)F)nn3C)c2)ccc1Cl)C1(C#N)CC1 [Ic-96] | 100% |  | 100% | 100% | 4.1 | 100% |  |  |  |  |  | 
Cn1nc(C(F)(F)C(F)(F)F)c(C(F)(F)F)c1-n1cc(-c2ccc(Br)c(C(=O)NC3(C#N)CC3)c2)cn1 [Ic-34] | 100% |  | 100% | 100% | 3.74 | 90% |  |  |  |  |  | 
Cn1nc(C(F)(F)C(F)(F)F)c(C(F)(F)F)c1-n1cnc(-c2ccc(Cl)c(C(=O)NC3CC3)c2)c1 [Ib-3] | 100% | 100% and 80% | 100% | 100% |  |  |  |  |  |  |  | 3.43
